Test results reported in PubChem BioAssay AID334 (DTP/NCI, 2004).
“And” between values parts separate entries of the source, which are not always exact repeats. Equal values may be shown once. Inconclusive results and toxic doses are left out. The calls were made as follows: active = survival T/C of 150% or more; inactive = T/C below 125% in these data.

System: CD2F1 mice, intracerebral P388 leukemia, median survival T/C%
Experiment: NCI In Vivo Anticancer Drug Screen. Data for tumor model P388 Leukemia (intracerebral) in CD2F1 (CDF1) mice
Details: endpoint: median survival time, higher = longer survival
Procedure: The antitumor activity of compounds was measured in mice bearing transplantable tumors. Survival or tumor size were measured and the results are expressed as the measurement made in the treated group (T) divided by the measurement made in the vehicle treated control group (C). The tumor model used in this assay is P388 Leukemia (intracerebral) in CD2F1 (CDF1) mice

[1] = dose: 12.5 mg/kg/injection, schedule: Q01DX009 (ip), vehicle: saline with Tween-80
[2] = dose: 50.0 mg/kg/injection, schedule: Q01DX009 (ip), vehicle: saline with Tween-80
[3] = dose: 100.0 mg/kg/injection, schedule: Q01DX009 (ip), vehicle: saline with Tween-80
[4] = dose: 6.25 mg/kg/injection, schedule: Q01DX009 (ip), vehicle: saline with Tween-80
[5] = dose: 25.0 mg/kg/injection, schedule: Q01DX009 (ip), vehicle: saline with Tween-80
[6] = dose: 3.12 mg/kg/injection, schedule: Q01DX009 (ip), vehicle: saline with Tween-80
[7] = dose: 3.0 mg/kg/injection, schedule: Q01DX009 (ip), vehicle: saline with Tween-80
[8] = dose: 4.0 mg/kg/injection, schedule: Q01DX009 (ip), vehicle: saline with Tween-80
[9] = dose: 6.0 mg/kg/injection, schedule: Q01DX009 (ip), vehicle: saline with Tween-80
[10] = dose: 32.0 mg/kg/injection, schedule: Q01DX005 (ip), vehicle: saline
[11] = dose: 128.0 mg/kg/injection, schedule: Q01DX005 (ip), vehicle: saline
[12] = dose: 16.0 mg/kg/injection, schedule: Q01DX009 (ip), vehicle: saline with Tween-80
[13] = dose: 32.0 mg/kg/injection, schedule: Q01DX009 (ip), vehicle: saline with Tween-80
[14] = dose: 64.0 mg/kg/injection, schedule: Q01DX009 (ip), vehicle: saline with Tween-80

Measured: T/C

CC1(C)N=C(N)N=C(N)N1c1ccc(CCCCc2ccc(S(=O)(=O)F)cc2Cl)c(Cl)c1
inactive: [1] 97 % of control | [2] 116 % of control | [3] 96 % of control | dose: 133.0 mg/kg/injection, schedule: Q04DX003 (ip), vehicle: saline with Tween-80 102 % of control | dose: 200.0 mg/kg/injection, schedule: Q04DX003 (ip), vehicle: saline with Tween-80 108 % of control | dose: 300.0 mg/kg/injection, schedule: Q04DX003 (ip), vehicle: saline with Tween-80 95 % of control

CC(=O)N(C)c1ccc(Nc2cc(C)[nH]c3ccc4ncnc4c23)cc1
inactive: dose: 10.0 mg/kg/injection, schedule: Q01DX005 (ip), vehicle: saline 107 % of control | dose: 20.0 mg/kg/injection, schedule: Q01DX005 (ip), vehicle: saline 106 % of control | dose: 40.0 mg/kg/injection, schedule: Q01DX005 (ip), vehicle: saline 104 % of control

CN=S(=O)(OCCCCCOS(=O)(=NC)c1ccccc1)c1ccccc1 (stereo unspecified)
inactive: [4] 107 % of control | [1] 100 % of control | [5] 101 % of control | [2] 102 % of control | [3] 102 % of control

CN(CO)c1nc(N(C)CO)nc(N(C)CO)n1
inactive: [6] 98 % of control | [4] 106 % of control | [1] 100 % of control and 101 % of control | [5] 116 % of control and 104 % of control | dose: 50.0 mg/kg/injection, schedule: Q01DX009 (ip), vehicle: Klucel (hydroxypropylcellulose) (HPC) 115 % of control and 93 % of control | [2] 103 % of control and 106 % of control | dose: 100.0 mg/kg/injection, schedule: Q01DX009 (ip), vehicle: Klucel (hydroxypropylcellulose) (HPC) 121 % of control and 112 % of control

CCCCCCCCCCCCCCCCCC(=O)N[C@@H](Cc1ccc(N(CCCl)CCCl)cc1)C(=O)NCCCCCC
inactive: dose: 2.12 mg/kg/injection, schedule: Q03HX008 (ip), vehicle: saline 105 % of control | dose: 4.24 mg/kg/injection, schedule: Q03HX008 (ip), vehicle: saline 105 % of control | dose: 8.48 mg/kg/injection, schedule: Q03HX008 (ip), vehicle: saline 105 % of control | dose: 16.95 mg/kg/injection, schedule: Q03HX008 (ip), vehicle: saline 94 % of control | dose: 33.9 mg/kg/injection, schedule: Q03HX008 (ip), vehicle: saline 105 % of control | dose: 67.8 mg/kg/injection, schedule: Q03HX008 (ip), vehicle: saline 110 % of control

O=NN(CCCl)C(=O)NC1CCC(=O)NC1=O (stereo unspecified)
inactive: dose: 4.0 mg/kg/injection, schedule: Q01DX001 (ip), vehicle: saline 114 % of control
active: [7] 221 % of control | [8] 242 % of control | [9] 250 % of control | dose: 8.0 mg/kg/injection, schedule: Q01DX001 (ip), vehicle: saline 156 % of control | dose: 16.0 mg/kg/injection, schedule: Q01DX001 (ip), vehicle: saline 212 % of control | dose: 32.0 mg/kg/injection, schedule: Q01DX001 (ip), vehicle: saline 262 % of control | dose: 64.0 mg/kg/injection, schedule: Q01DX001 (ip), vehicle: saline 212 % of control

CN(Cc1cnc2nc(N)nc(N)c2n1)c1c(Cl)cc(C(=O)NC(CCC(=O)O)C(=O)O)cc1Cl (stereo unspecified)
inactive: dose: 16.0 mg/kg/injection, schedule: Q01DX005 (ip), vehicle: saline 115 % of control | [10] 121 % of control | [11] 86 % of control

O=[N+]([O-])O.[Ga]
inactive: [10] 111 % of control | dose: 64.0 mg/kg/injection, schedule: Q01DX005 (ip), vehicle: saline 111 % of control | [11] 104 % of control

CN(C)c1nc(N(C)C)nc(N(C)C)n1
inactive: dose: 100.0 mg/kg/injection, schedule: Q01DX005 (ip), vehicle: saline with Tween-80 104 % of control | dose: 100.0 mg/kg/injection, schedule: Q01DX005 (ip), vehicle: suspension in saline 100 % of control | dose: 200.0 mg/kg/injection, schedule: Q01DX005 (ip), vehicle: saline with Tween-80 111 % of control | dose: 200.0 mg/kg/injection, schedule: Q01DX005 (ip), vehicle: suspension in saline 107 % of control | dose: 400.0 mg/kg/injection, schedule: Q01DX005 (ip), vehicle: saline with Tween-80 111 % of control | dose: 400.0 mg/kg/injection, schedule: Q01DX005 (ip), vehicle: suspension in saline 89 % of control

O=C1c2ccccc2C(=O)c2c(NCCNCCO)ccc(NCCNCCO)c21
inactive: dose: 4.0 mg/kg/injection, schedule: Q01DX005 (ip), vehicle: saline with Tween-80 112 % of control | [8] 109 % of control | dose: 4.0 mg/kg/injection, schedule: Q01DX009 (ip), vehicle: saline 101 % of control and 105 % of control | dose: 8.0 mg/kg/injection, schedule: Q01DX005 (ip), vehicle: saline with Tween-80 104 % of control | dose: 8.0 mg/kg/injection, schedule: Q01DX009 (ip), vehicle: saline with Tween-80 118 % of control and 121 % of control | dose: 8.0 mg/kg/injection, schedule: Q01DX009 (ip), vehicle: saline 91 % of control and 111 % of control | dose: 16.0 mg/kg/injection, schedule: Q01DX005 (ip), vehicle: saline with Tween-80 114 % of control | [12] 119 % of control and 108 % of control | dose: 16.0 mg/kg/injection, schedule: Q01DX009 (ip), vehicle: saline 120 % of control and 112 % of control | dose: 32.0 mg/kg/injection, schedule: Q01DX005 (ip), vehicle: saline with Tween-80 96 % of control | [13] 87 % of control and 101 % of control | dose: 32.0 mg/kg/injection, schedule: Q01DX009 (ip), vehicle: saline 90 % of control | [14] 98 % of control

CC1(CO)C(O)CCC2(C)C1CCC1CC3CC12CCC3(O)CO (stereo unspecified)
inactive: [1] 94 % of control | [5] 113 % of control | [2] 100 % of control | [3] 94 % of control | dose: 200.0 mg/kg/injection, schedule: Q01DX009 (ip), vehicle: saline with Tween-80 96 % of control

C#C[C@]1(O)CC[C@H]2[C@@H]3CCc4cc(O)ccc4[C@H]3CC[C@@]21C
inactive: dose: 8.0 mg/kg/injection, schedule: Q01DX009 (ip), vehicle: Klucel (hydroxypropylcellulose) (HPC) 90 % of control and 100 % of control | dose: 16.0 mg/kg/injection, schedule: Q01DX009 (ip), vehicle: Klucel (hydroxypropylcellulose) (HPC) 94 % of control and 104 % of control | [12] 95 % of control | dose: 32.0 mg/kg/injection, schedule: Q01DX009 (ip), vehicle: Klucel (hydroxypropylcellulose) (HPC) 100 % of control and 101 % of control | [13] 100 % of control | dose: 64.0 mg/kg/injection, schedule: Q01DX009 (ip), vehicle: Klucel (hydroxypropylcellulose) (HPC) 94 % of control and 100 % of control | [14] 95 % of control | dose: 128.0 mg/kg/injection, schedule: Q01DX009 (ip), vehicle: Klucel (hydroxypropylcellulose) (HPC) 99 % of control and 102 % of control | dose: 256.0 mg/kg/injection, schedule: Q01DX009 (ip), vehicle: Klucel (hydroxypropylcellulose) (HPC) 95 % of control and 100 % of control | dose: 512.0 mg/kg/injection, schedule: Q01DX009 (ip), vehicle: Klucel (hydroxypropylcellulose) (HPC) 86 % of control and 99 % of control | dose: 512.0 mg/kg/injection, schedule: Q01DX009 (ip), vehicle: saline with Tween-80 103 % of control

CC(C)(C)N1CC1CNC(=O)C(=O)NCC1CN1C(C)(C)C (stereo unspecified)
active: [1] 177 % of control
inactive: [7] 101 % of control | [6] 104 % of control and 107 % of control | [9] 121 % of control | [4] 117 % of control and 111 % of control | [5] 105 % of control

CC1(C)N=C(N)N=C(N)N1c1ccc(CCC(=O)Nc2ccc(S(=O)(=O)F)cc2)cc1
inactive: dose: 50.0 mg/kg/injection, schedule: Q01DX009 (ip), vehicle: saline 111 % of control | dose: 100.0 mg/kg/injection, schedule: Q01DX009 (ip), vehicle: saline 100 % of control

CS(C)=O
inactive: dose: 1000.0 mg/kg/injection, schedule: Q01DX005 (ip), vehicle: saline 104 % of control and 107 % of control | dose: 2000.0 mg/kg/injection, schedule: Q01DX005 (ip), vehicle: saline 100 % of control and 104 % of control | dose: 4000.0 mg/kg/injection, schedule: Q01DX005 (ip), vehicle: saline 100 % of control and 105 % of control | dose: 8000.0 mg/kg/injection, schedule: Q01DX005 (ip), vehicle: saline 105 % of control and 108 % of control

COc1cc2c(c3c1c(=O)c1ccccc1n3C)C=CC(C)(C)O2
inactive: dose: 128.0 mg/kg/injection, schedule: Q01DX005 (ip), vehicle: Klucel (hydroxypropylcellulose) (HPC) 107 % of control | dose: 256.0 mg/kg/injection, schedule: Q01DX005 (ip), vehicle: Klucel (hydroxypropylcellulose) (HPC) 112 % of control | dose: 512.0 mg/kg/injection, schedule: Q01DX005 (ip), vehicle: Klucel (hydroxypropylcellulose) (HPC) 113 % of control
